Results reported in patent US10994015B2, “EGFR proteolysis targeting chimeric molecules and associated methods of use” (Arvinas Operations, Inc., priority 2016, dated 2021).
pIC50: −log10 of the molar value.

Assays:
EGFR L858R/T790M = EGFR L858R/T790M (Homo sapiens (Human), UniProt P00533, L858R/T790M); assay: TR-FRET assay for ERBB kinases; format: biochemical; conditions: geometric mean if measured more than once
Outline: (§1)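 Kinase pre-incubated 10 min with compound in pH 7.5 HEPES buffer with MgCl2 and DTT, then reacted 10 min at room temperature with fluorescein-poly-GluTyr and ATP (substrate mix at 3 mM ATP, 30 uM peptide). EDTA-quenched; Tb-pY20 antibody TR-FRET read at 520/490 nm.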

EGFR L858R/T790M/C797S = EGFR L858R/T790M/C797S (Homo sapiens (Human), UniProt P00533, C797S/L858R/T790M); assay: TR-FRET assay for ERBB kinases; format: biochemical; conditions: geometric mean if measured more than once
EGFR L858R/T790M/C797S, sequence (P00533 25-1210 T790M/C797S/L858R): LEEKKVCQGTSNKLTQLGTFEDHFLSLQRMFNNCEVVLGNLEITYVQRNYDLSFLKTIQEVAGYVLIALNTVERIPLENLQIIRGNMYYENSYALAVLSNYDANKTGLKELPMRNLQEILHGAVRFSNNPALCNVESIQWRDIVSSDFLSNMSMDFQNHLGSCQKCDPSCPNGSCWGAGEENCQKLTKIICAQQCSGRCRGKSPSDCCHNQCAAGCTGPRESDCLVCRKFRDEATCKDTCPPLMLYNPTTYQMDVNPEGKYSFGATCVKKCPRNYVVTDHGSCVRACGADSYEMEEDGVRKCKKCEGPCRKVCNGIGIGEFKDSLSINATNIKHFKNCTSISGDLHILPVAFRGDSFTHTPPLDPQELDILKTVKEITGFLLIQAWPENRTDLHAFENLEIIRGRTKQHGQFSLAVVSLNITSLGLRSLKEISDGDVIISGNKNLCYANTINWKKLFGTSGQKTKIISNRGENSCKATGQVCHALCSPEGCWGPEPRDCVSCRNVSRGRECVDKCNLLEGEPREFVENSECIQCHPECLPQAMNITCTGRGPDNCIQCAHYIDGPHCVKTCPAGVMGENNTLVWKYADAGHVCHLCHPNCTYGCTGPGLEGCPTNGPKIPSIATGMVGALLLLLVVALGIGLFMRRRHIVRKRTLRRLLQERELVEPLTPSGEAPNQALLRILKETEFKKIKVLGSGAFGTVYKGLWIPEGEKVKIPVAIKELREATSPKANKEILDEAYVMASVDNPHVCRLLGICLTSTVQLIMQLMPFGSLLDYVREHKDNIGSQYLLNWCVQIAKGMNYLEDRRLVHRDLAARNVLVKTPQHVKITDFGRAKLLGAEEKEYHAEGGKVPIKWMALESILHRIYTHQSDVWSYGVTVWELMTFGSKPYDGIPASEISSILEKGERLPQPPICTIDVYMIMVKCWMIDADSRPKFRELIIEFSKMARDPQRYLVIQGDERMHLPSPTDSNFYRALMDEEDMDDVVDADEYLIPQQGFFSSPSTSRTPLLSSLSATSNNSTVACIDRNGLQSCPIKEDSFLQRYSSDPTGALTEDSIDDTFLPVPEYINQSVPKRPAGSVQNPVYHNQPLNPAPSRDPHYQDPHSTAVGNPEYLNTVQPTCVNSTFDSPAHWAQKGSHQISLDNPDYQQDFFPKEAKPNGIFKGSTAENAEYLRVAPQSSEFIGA
Outline: as §1

EGFR WT = EGFR WT (Homo sapiens (Human), UniProt P00533); assay: TR-FRET assay for ERBB kinases; format: biochemical; conditions: geometric mean if measured more than once
Outline: as §1

EGFR Exon20NPG = EGFR Exon20NPG (Homo sapiens (Human), UniProt P00533, INS770NPG); assay: TR-FRET assay for ERBB kinases; format: biochemical; conditions: geometric mean if measured more than once
Outline: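 Compounds pre-incubated 10 min with kinase in HEPES pH 7.5 buffer (MgCl2, DTT, Pluronic), then reaction started with substrate mix (3 mM ATP, 30 µM fluorescein-poly-GluTyr, stock levels) for 10 min at room temperature. EDTA-quenched, detected by Tb-pY20 antibody TR-FRET (520/490 nm emission).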

[1] = target: EGFR L858R/T790M double mutant (H1975) (Homo sapiens (Human), UniProt P00533, L858R/T790M); assay: EGFR protein degradation assay (Western blot); format: cell-based; conditions: 72 hours, 300 nM to 10 nM
EGFR L858R/T790M double mutant (H1975), sequence (P00533 25-1210 T790M/L858R): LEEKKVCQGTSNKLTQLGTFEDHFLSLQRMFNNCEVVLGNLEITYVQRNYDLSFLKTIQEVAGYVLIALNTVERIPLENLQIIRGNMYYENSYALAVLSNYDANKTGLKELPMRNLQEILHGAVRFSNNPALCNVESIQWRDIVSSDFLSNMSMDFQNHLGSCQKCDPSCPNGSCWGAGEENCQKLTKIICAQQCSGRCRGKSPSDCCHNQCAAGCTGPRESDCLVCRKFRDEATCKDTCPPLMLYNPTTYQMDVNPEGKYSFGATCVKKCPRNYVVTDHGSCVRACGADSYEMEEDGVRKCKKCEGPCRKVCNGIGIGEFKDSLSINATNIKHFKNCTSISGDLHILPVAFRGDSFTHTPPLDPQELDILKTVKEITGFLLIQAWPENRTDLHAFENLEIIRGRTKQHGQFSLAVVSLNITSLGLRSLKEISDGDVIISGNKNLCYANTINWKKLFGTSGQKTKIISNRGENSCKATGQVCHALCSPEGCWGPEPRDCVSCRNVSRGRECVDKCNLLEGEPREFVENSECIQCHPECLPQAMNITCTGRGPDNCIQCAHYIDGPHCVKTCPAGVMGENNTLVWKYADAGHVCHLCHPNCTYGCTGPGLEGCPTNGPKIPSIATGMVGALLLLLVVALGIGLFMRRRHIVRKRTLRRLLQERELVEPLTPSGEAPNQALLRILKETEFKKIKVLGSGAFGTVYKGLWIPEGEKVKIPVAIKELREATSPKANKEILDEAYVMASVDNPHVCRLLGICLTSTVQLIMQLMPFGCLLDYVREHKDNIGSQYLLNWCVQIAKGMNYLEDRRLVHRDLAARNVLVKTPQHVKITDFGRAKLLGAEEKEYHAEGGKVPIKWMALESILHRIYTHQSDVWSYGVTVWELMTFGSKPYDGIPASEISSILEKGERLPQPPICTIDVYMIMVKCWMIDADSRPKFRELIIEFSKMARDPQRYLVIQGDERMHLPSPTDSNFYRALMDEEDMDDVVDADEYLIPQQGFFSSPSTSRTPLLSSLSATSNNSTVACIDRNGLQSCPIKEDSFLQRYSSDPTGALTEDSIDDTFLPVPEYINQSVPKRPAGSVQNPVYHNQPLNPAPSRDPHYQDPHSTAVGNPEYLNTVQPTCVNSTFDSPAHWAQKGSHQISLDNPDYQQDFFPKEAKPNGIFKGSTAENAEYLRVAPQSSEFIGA
Outline: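 Cells carrying the relevant EGFR form were plated at 300,000 cells per well in 6-well plates and left to attach overnight. After washing in ice-cold PBS, cells were lysed in 400 μl lysis buffer with protease inhibitors, scraped, and clarified at 10 000 rpm for 10 minutes. EGFR levels were then assessed by Western blot with tubulin as loading control.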

[2] = target: EGFR L858R/T790M/C797S triple mutant (H520*) (Homo sapiens (Human), UniProt P00533, C797S/L858R/T790M); assay: EGFR protein degradation assay (Western blot); format: cell-based; conditions: 72 hours, 300 nM to 10 nM
EGFR L858R/T790M/C797S triple mutant (H520*), sequence (P00533 25-1210 T790M/C797S/L858R): as the sequence (P00533 25-1210 T790M/C797S/L858R) above
Method: EGFR Protein Degradation assay
Cells were incubated overnight at 37° C., 5% CO2 prior to compound addition. A 10 mM compound stock in DMSO was serially diluted in DMSO to provide the following stock concentrations: 1, 0.3, 0.1, 0.03 and 0.01 mM. An appropriate volume of each compound dilution, together with a DMSO vehicle control, was added to media to provide a 2× compound solution. […] At the end of the compound treatment, cells were washed once with ice-cold phosphate-buffered saline (PBS) and treated with lysis solution (1× lysis buffer, Cell Signaling Technologies (CST #9803) supplemented with Piarce™ protease inhibitors, #A32953, Thermo Fisher Scientific, TFS). Lysates were collected and clarified of cell debris by spinning at 10K rpm for 10 minutes. A specific volume of supernatant was retrieved for protein quantification (Pierce™ BCA kit, TFS #23225) and for Western analysis. Loading buffer supplemented with EDTA and reducing agent was added to each supernatant. A specific volume of supernatant (determined by protein assay: […] loaded per sample) was loaded into a NuPAGE™ 4-12% Bis-Tris gel (TFS). Samples were run at 165V in MOPS running buffer for 2 hours and then transferred to PVDF blotting membrane using a dry blotting system (iBlot2, TFS). Membranes were blocked in Tris-buffered saline supplemented with Tween, 0.1% (TBST) containing 5% non-fat dry milk, (AmericanBio). Following block, membranes were washed once with TBST. […] Membranes were washed 3× with TBST prior to addition of secondary antibody (1:10 000, anti-rabbit HRP-linked, CST #7074) in TBST with 3% BSA and then incubated at room temperature for one hour. Membranes were then washed 3× with TBS and signal developed by exposure to developer (SuperSignal West Femto, TFS) for 5 minutes. Membranes were then immediately imaged using a BioRad Chemidoc.

EGFR L858R/T790M, sequence (P00533 25-1210 T790M/L858R): as the sequence (P00533 25-1210 T790M/L858R) above

Compound `O=C1CCC(N2C(=O)c3cccc(NCCOCCOCCOCC#Cc4cccc5c4C(=O)N([C@@H](C(=O)Nc4nccs4)c4cc(F)ccc4O)C5)c3C2=O)C(=O)N1` (stereo partly drawn) [compound 265] has a pIC50 (EGFR L858R/T790M) of 4.57, a pIC50 (EGFR L858R/T790M/C797S) of 6.54 and a pIC50 (EGFR WT) of 5.44. The pIC50 (EGFR Exon20NPG) was 4.70, the “EGFR protein remaining, EGFR L858R/T790M double mutant” value [1] was “C (>80% EGFR protein remaining after 72 hours of incubation with the test compound at a concentration of 300 nM)” and the “EGFR protein remaining, EGFR L858R/T790M/C797S triple mutant” value [2] was “C (>80% EGFR protein remaining after 72 hours of incubation with the test compound at a concentration of 300 nM)”.
For `O=C1CCC(N2C(=O)c3ccc(OCCOCCOCCOCCOCC#Cc4cccc5c4C(=O)N([C@@H](C(=O)Nc4nccs4)c4cc(F)ccc4O)C5)cc3C2=O)C(=O)N1` (stereo partly drawn) [compound 262], the pIC50 (EGFR L858R/T790M) was 6.37, the pIC50 (EGFR L858R/T790M/C797S) was 6.60 and the pIC50 (EGFR WT) was 5.43. The pIC50 (EGFR Exon20NPG) was 5.13, the “EGFR protein remaining, EGFR L858R/T790M double mutant” value [1] was “C (>80% EGFR protein remaining after 72 hours of incubation with the test compound at a concentration of 300 nM)” and the “EGFR protein remaining, EGFR L858R/T790M/C797S triple mutant” value [2] was “C (>80% EGFR protein remaining after 72 hours of incubation with the test compound at a concentration of 300 nM)”.
Compound `Cc1ncsc1-c1ccc(CNC(=O)[C@@H]2C[C@@H](O)CN2C(=O)[C@H](C(C)C)N2Cc3ccccc3C2=O)c(OCCOCCOCC#Cc2cccc3c2C(=O)N([C@@H](C(=O)Nc2nccs2)c2cc(F)ccc2O)C3)c1` (single isomer, unassigned) [Example 257] has a pIC50 (EGFR L858R/T790M) of under 4.52, a pIC50 (EGFR L858R/T790M/C797S) of 5.57 and a pIC50 (EGFR WT) of 5.24. For the same compound, the pIC50 (EGFR Exon20NPG) was under 4.52, the “EGFR protein remaining, EGFR L858R/T790M double mutant” value [1] was “C (>80% EGFR protein remaining after 72 hours of incubation with the test compound at a concentration of 300 nM)” and the “EGFR protein remaining, EGFR L858R/T790M/C797S triple mutant” value [2] was “C (>80% EGFR protein remaining after 72 hours of incubation with the test compound at a concentration of 300 nM)”.
In the case of `COC1CCN(c2nccc(Nc3cc4c(cn3)nc(COCCOCCN3CCN(CCCCc5ccc6c(c5)C(=O)N(C5CCC(=O)NC5=O)C6=O)CC3)n4C(C)C)n2)CC1` (stereo not drawn) [compound 87], the pIC50 (EGFR L858R/T790M) was 4.82, the pIC50 (EGFR L858R/T790M/C797S) was 5.48 and the pIC50 (EGFR WT) was under 4.52. The pIC50 (EGFR Exon20NPG) was 4.85, the “EGFR protein remaining, EGFR L858R/T790M double mutant” value [1] was “C (>80% EGFR protein remaining after 72 hours of incubation with the test compound at a concentration of 300 nM)” and the “EGFR protein remaining, EGFR L858R/T790M/C797S triple mutant” value [2] was “C (>80% EGFR protein remaining after 72 hours of incubation with the test compound at a concentration of 300 nM)”.
With `Cc1ncsc1-c1ccc(CNC(=O)[C@@H]2C[C@@H](O)CN2C(=O)[C@H](C(C)C)N2Cc3ccccc3C2=O)c(OCCOCCOCCOCC#Cc2cccc3c2C(=O)N([C@@H](C(=O)Nc2nccs2)c2cc(F)ccc2O)C3)c1` [compound 258] the pIC50 (EGFR L858R/T790M) was 5.23, the pIC50 (EGFR L858R/T790M/C797S) was 5.40 and the pIC50 (EGFR WT) was 5.77. For the same compound, the pIC50 (EGFR Exon20NPG) was 5.31, the “EGFR protein remaining, EGFR L858R/T790M double mutant” value [1] was “C (>80% EGFR protein remaining after 72 hours of incubation with the test compound at a concentration of 300 nM)” and the “EGFR protein remaining, EGFR L858R/T790M/C797S triple mutant” value [2] was “C (>80% EGFR protein remaining after 72 hours of incubation with the test compound at a concentration of 300 nM)”.
Compound `Cc1ncsc1-c1ccc([C@H](C)NC(=O)[C@H]2C[C@H](O)CN2C(=O)[C@@H](NC(=O)COCCCOCCCC#Cc2cccc3c2C(=O)N(C(C(=O)Nc2nccs2)c2cc(F)ccc2O)C3)C(C)(C)C)cc1` (stereo partly drawn) [compound 93] has a pIC50 (EGFR L858R/T790M) of 5.46, a pIC50 (EGFR L858R/T790M/C797S) of 6.28 and a pIC50 (EGFR WT) of 4.96. For the same compound, the pIC50 (EGFR Exon20NPG) was 5.48, the “EGFR protein remaining, EGFR L858R/T790M double mutant” value [1] was “C (>80% EGFR protein remaining after 72 hours of incubation with the test compound at a concentration of 300 nM)” and the “EGFR protein remaining, EGFR L858R/T790M/C797S triple mutant” value [2] was “C (>80% EGFR protein remaining after 72 hours of incubation with the test compound at a concentration of 300 nM)”.
